According to a melting point compilation (Tetko et al.; mined from patent text by program, amines drawn as free bases though some values may be those of a salt):

Compound | melting point
N#Cc1ccc2c3ccc(C#N)c4c(C#N)ccc(c5ccc(Br)c1c52)c43 | 235 to 237 °C
COC1CN(C(=O)Nc2ccc(C(F)(F)F)cc2)N=C1c1ccc(Cl)cc1 (stereo not drawn) | 185 to 186 °C
Cc1ccccc1C(O)c1cncnc1C(C)(C)C (stereo not drawn) | 125 to 127 °C
N#Cc1ccc(C(=O)c2ccc(O)c(F)c2)cc1 | 168 to 170 °C
[N-]=[N+]=C1C(=O)Nc2c1cccc2C(F)(F)F | 173 to 175 °C
Cc1sc(-c2ccc(C#N)cc2)nc1O | 220 to 221 °C
COc1cccc(-n2nc(Sc3ccc(Cl)cc3)c(C)c(C#N)c2=O)c1 | 148 to 149 °C
COC(=O)c1c(Cl)c(Cl)c(Cl)c(Cl)c1C#N | 82 to 83 °C
O=S(=O)(c1ccccc1)n1c2ccc(Br)cc2c2ccc(Cl)nc21 | 204 to 206 °C
N#Cc1cc(Cc2ccccc2)ccc1N | 68 to 69 °C
CCn1nc(-c2ccc(F)cc2)c(-c2ccncc2)c1C(=O)N(C)Cc1ccccn1 | 144 to 147 °C
COc1cc2ncc(C#N)c(Sc3cccc(Br)c3)c2cc1OC | 173 to 175 °C
CCCCc1oc2ccccc2c1C(=O)N(C)Cc1ccc(-c2ccc(OCC(=O)O)c(Br)c2)cc1 | 72 to 78 °C
CCc1nnc2c(N)nc3ccccc3n12 | 284 to 288 °C
c1ccc(Nc2ncnc3cnccc23)cc1 | 161 °C
O=C(O)CCNCCn1nc(-c2c(-c3ccccc3)nn3ccccc23)ccc1=O | 230 to 232 °C
Nc1cc(C(F)(F)F)cc2nc3c4ccccc4c4ccccc4c3nc12 | 194 to 195 °C
CCCc1nc(C(C)O)c(C(=O)O)n1Cc1ccc(-c2ccccc2-c2nnn[nH]2)cc1 (stereo not drawn) | 198 to 201 °C
CNc1nc(-c2cccc(C#Cc3cccnc3)c2)c2cc(OC)c(OC)cc2n1 | 103 to 105 °C
FC(F)(F)c1ccc2nc(N3CCN(c4ncccc4Cl)CC3)[nH]c2c1 | 208 to 210 °C
Cc1nc(N)nc(N)c1N=Nc1ccc(I)cc1 | 243 to 244 °C
Cc1cccc(-c2cc3cnc(N)nc3nc2NC(=O)NC(C)(C)C)c1C | 326 to 330 °C
CCN1c2c(occ(C=O)c2=O)-c2ccccc2S1(=O)=O | 160 to 162 °C
Cc1cccc(NC(=O)NC2CC(c3ccccc3F)c3ccccc3N(CC(=O)NC(C)(C)C)C2=O)c1 (stereo not drawn) | 285 to 300 °C
Cc1cc(Cc2ccccc2)nc(Nc2ccc(-n3cnc(C)n3)c(F)c2)n1 | 183 to 185 °C

Compound | melting point
CC(CCCc1ccccc1)c1cc(O)c2c3c(c(=O)oc2c1)CCC(=O)C3 (stereo not drawn) | 163 to 164 °C
Cc1cc(F)c(Nc2ncnc3cc(O)ccc23)cc1O | 274 to 278 °C
CCCCc1cn(-c2ccccc2CC)c(=O)n1Cc1ccc(-c2ccccc2-c2nnn[nH]2)cc1 | 188 to 189 °C
COc1ccc(CCC(=O)Nc2c(C)c(C)c3c(c2C)C(c2ccc(C(C)C)cc2)C(C)(C)O3)cc1 (stereo not drawn) | 188 to 191 °C
Cc1cccc(Cl)c1CCCOc1oc(-n2ccnc2C)nc1-c1ccc(Cl)cc1 | 115 to 116 °C
CC(C)(C)c1cc(C(=O)c2ccc(O)cc2)cc(C(C)(C)C)c1O | 188 to 190 °C
COc1cc(OC)c(-c2cccs2)cc1/C=C/C(=O)c1cccc(C(=O)O)c1 | 179 to 182 °C
COc1ccc([N+](=O)[O-])c(NC(C(=O)O)C(c2ccccc2)c2ccccc2)n1 (stereo not drawn) | 172 to 180 °C
Cn1cc(-c2cc(-c3cnc4ccccc4c3)ccn2)n(-c2ccc(C(C)(C)CN)cc2)c1=O | 132 °C
O=c1n(CC2CO2)c(=O)n(CC2CO2)n1CC1CO1 (stereo not drawn) | 93 to 94 °C
CC(C)c1cccc(C(C)C)c1NC(=O)NC1CCC(C(C)(C)C)CC1 (stereo not drawn) | 264 to 266 °C
Cc1cc(Nc2ccc(Cl)cc2)nc(-n2ncc3ccccc32)n1 | 167 to 169 °C
Cc1cccc(Nc2nc(-c3cn[nH]c3)c(F)s2)n1 | 204 °C
O=Cc1cccc(NC(=O)c2ccccc2)c1 | 122 to 123 °C
CSc1ccc(NC(=O)Nc2cc(-c3c(-c4ccc(F)c(C)c4)nc4cccnn34)ccn2)cc1 | 219 to 220 °C
O=C(O)c1ccc(S(=O)(=O)CCCl)cc1 | 142 to 144 °C
Nc1ccc(C(=O)C=Cc2ccncc2)cc1 | 207 °C
Clc1ncc(Cl)c(-c2ccc(Cl)c(Cl)c2)n1 | 125 to 126 °C
CS(=O)(=O)c1[nH]nc(-c2ccc(F)cc2)c1-c1ccncc1 | 297 to 300 °C
COC(=O)c1ccccc1-c1n[nH]c(-c2cccc(C(F)(F)F)c2)n1 | 110 to 112 °C
O=C1NC(=O)C(C2C3CCCC32)O1 (stereo not drawn) | 135 to 141 °C
CCC/C=C/c1ccc(C#CC(C)(C)O)cc1 | 65 °C
CC1(N)CN=CC=C1N (stereo not drawn) | 163 to 165 °C
N#Cc1ccccc1-c1cc(-c2cnc3nccnn23)ccc1F | 211 to 215 °C
CS(=O)(=O)c1nccc(-n2cncn2)n1 | 135 to 136 °C

The next lines start with the values.

melting point | Compound
79.5 to 81.5 °C | O=C(NC1CC(=O)c2ccccc2C1)OCc1ccccc1 (stereo not drawn)
164 to 165 °C | CN(CCN1CCC(=C(c2ccc(F)cc2)c2ccc(F)cc2)CC1)c1nc(=O)cc[nH]1
109 °C | COC(=O)C1=C(C)NC(C)=C(C(=O)O)C1c1ccccc1C(F)(F)F (single isomer, unassigned; (+))
134 to 136 °C | CCCCn1c(CCC)cc(=O)c(C(=O)Nc2ccccc2)c1CCC
112 to 114 °C | O=C(O)c1ccccc1CNC1CCOC1=O (stereo not drawn)
248 °C | COC(=O)c1sc2ccc(NC(C)=O)cc2c1N
130 °C | O=C(N[C@H]1CCN(CCCOc2ccc(F)cc2)C[C@H]1O)c1ccccc1 (relative stereo)
50 to 51 °C | C[Si](C)(C)c1ccc(NC(=O)CCCC=C(F)F)cc1
116 to 121 °C | COc1ccc(N2CCN(C)CC2)cc1-c1cnn2c(N)c(-c3cccc(Cl)c3)c(C)nc12
> 230 °C | CCOC(=O)c1cc(-c2csc(-c3ccnc(N(C)C)c3)n2)c(=O)[nH]c1C(C)C
175 to 177 °C | CCn1c(=NC(C)=O)c(-c2c(Cl)cccc2Cl)cc2cnc(SC)nc21
155 to 156 °C | NS(=O)(=O)c1cc2cc(N3CCOCC3)ccc2s1
71.4 to 73.8 °C | COC(=O)c1cc(-c2ccc(F)c(C)c2)nn(CC(C)C)c1=O
148 to 149 °C | COc1nc(Oc2ccccc2C(=O)O)nc(N(C)C)n1
120 to 123 °C | O=CN(O)C(CS(=O)(=O)c1ccc(Oc2ccc(OC(F)(F)F)cc2)cc1)CS(=O)(=O)N1CCCC1 (stereo not drawn)
68 to 72 °C | COC(=O)Cc1ccc(CNC(=O)C2Cc3ccccc3N2S(=O)(=O)c2ccc(-c3ccc(F)cc3F)cc2)cc1 (stereo not drawn)
218 to 220 °C | COc1cc2c(cc1Br)-c1c(Br)c3c(n1CC2)C(=O)N(C(C)(C)C)CCC3
150 to 151 °C | CCNC(=O)Nc1snc(C)c1C(=O)OCC
89 to 90 °C | CCOc1ccc2c(C)c(CCCl)c(=O)oc2c1OCC
111 °C | CCOC(=O)N1CCC(Nc2nc3cccnc3n2Cc2ccc(CC)o2)CC1
149 to 150 °C | CCC(CC)N1CC2=C3C(=NN(c4ccc(C(C)C)cc4Br)C(=O)N3CC2)C(C)=N1
95 to 97 °C | CC(=O)Oc1ccc(C(=O)NCCO[N+](=O)[O-])cc1
83.1 to 111 °C | COCC1CCCN1CCC1CCN(c2nc(=O)c3c(C)c(OC)c(OC)cc3[nH]2)CC1 (stereo not drawn)
110 to 112 °C | CC(=O)OCc1c2ccccc2cc2ccccc12

melting point | Compound
63 to 67 °C | CC(=O)SCCS(=O)(=O)N1CCC[C@H]1C(=O)O
113 to 114 °C | Cc1nnc(SCC(=O)C23CC4CC(CC(C4)C2)C3)n1C
107 to 108 °C | CCOC(=O)C1SC(c2ccc3ccccc3c2)=NN1C(=O)CCSC(C)=O (stereo not drawn)
224 to 227 °C | CCNC(=O)CC1CCN(Cc2cnc3cc(NC(=O)c4ccc(-c5ccc(F)cc5)cc4)ccc3c2)CC1
159 to 161 °C | CCOC(=O)c1cncc(C(=O)NC(C)c2ccccc2)c1 (stereo not drawn)
176 to 179 °C | CC(=O)Oc1ccc(CC(=O)Nc2cccc(/C=C/c3nc(C4CCC4)cs3)c2)c(C(=O)O)c1
113 °C | CCN(CC)C(=O)c1ccc(-c2ccc(-c3ccccc3)c(-c3ccc4c(c3)C(C)(C)CCC4(C)C)c2)cc1
61 to 62 °C | CCOC(=O)c1cnc(-c2cccs2)s1
> 250 °C | O=C(O)c1[nH]c2cc(Cl)cc(Cl)c2c1C=C1CON(c2ccccc2)C1=O
91 to 92 °C | COC(=O)c1ccc(C#CC(O)c2cc(C(C)(C)C)c(OCOCC[Si](C)(C)C)c(C(C)(C)C)c2)cc1 (stereo not drawn)
139 to 140 °C | Cc1oc(-c2ccccc2)nc1C(O)COc1ccc(N)cc1 (stereo not drawn)
130 °C | COC(=O)c1c2ccccc2nc2ccc(Cl)cc12
177 to 179 °C | Cc1nc(N2CCN(Cc3ccc(F)cc3)C2=O)sc1C(=O)NCc1cccnc1
165 °C | Cc1cccc(N(CCC(=O)O)Cc2ccc3nc(N)n(Cc4nc(C)ccc4O)c3c2)c1
54 to 56 °C | O=C1NC(=O)C(Cc2ccc(OCC3CCN(C(=O)OCc4ccccc4)CC3)cc2)S1 (stereo not drawn)
89 to 90 °C | CCOC(=O)CN1CCc2cc3c(cc2CC1)OCO3
156 to 157 °C | CCCNC(=O)C1(CCCCN2CCC(N3Cc4ccccc4C3=O)CC2)C(c2ccccc2)=Cc2ccccc21 (stereo not drawn)
108 to 110 °C | CN1CCc2c(c3ccccc3n2CCC#N)C1
175 to 179 °C | C/C=C/c1cc(OC)c2oc(-c3ccc(O)c(OC)c3)c(CO)c2c1
145 to 146 °C | C=C1N(C2CCCCC2)C(=O)OC12CCN(CCC=C(c1ccc(F)cc1)c1ccc(F)cc1)CC2
99 °C | COC(=O)CCCc1cc2nc(Cl)ccc2n1S(=O)(=O)c1ccc(C(F)(F)F)cc1
126 to 127 °C | COc1cc(C(=O)N(C)C)ccc1OCCCN1CCC(c2noc3cc(F)ccc23)CC1
67 to 69 °C | CN(C)CCCOc1ccccc1C=C1CCc2ccccc2C1=O
97 to 99 °C | Cc1cc(Oc2cccc(C(F)(F)F)c2)nn1C(=O)Nc1ccc(Cl)c(Cl)c1
